Bounds are passed on as bounds.

The results in this text go back to patent EP4707280A1, “1,4-CINEOLE DERIVATIVE AND INTERMEDIATE THEREOF, HERBICIDE CONTAINING SAID DERIVATIVE AS ACTIVE INGREDIENT, METHOD FOR USING HERBICIDE, AND METHOD FOR PREPARING AGROCHEMICAL COMPOSITION” (HOKKO CHEMICAL INDUSTRY CO., LTD., priority 2023, dated 2024).

Holding throughout (format): in vivo
Experiment [1] relates to Lindernia pyxidaria. As to the kind of experiment: Test Example 5: herbicidal effect test by soil application in paddy rice (low dose). As to conditions: 336 h, 7.5 g per 10 ares, applied immediately after sowing, flooded pots, 14 days after application, read-out: weed inhibition rate. In a few lines: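 Paddy-soil pots, weeds sown 0–1 cm deep and flooded to about 3 cm in a greenhouse. Emulsifiable concentrate diluted in water and dropped in right after sowing at 7.5 g active ingredient per 10 ares. Duplicates; effect scored 14 days after application.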

Experiment [2] concerns Lindernia pyxidaria. Briefly: Test Example 2: herbicidal effect test by application during growth period of paddy rice. As to conditions: 120 g per 10 ares, applied seven days after sowing, flooded pots, 14 days after application, read-out: weed inhibition rate. The method in brief:
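Paddy soil in flooded pots (water depth about 3 cm) was sown with weed seeds and kept in a glass greenhouse. Seven days after sowing, a diluted emulsifiable concentrate was applied by dropper at 120 g active ingredient per 10 ares. Weed inhibition was evaluated 14 days after application, in duplicate.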

Experiment [3] relates to Amaranthus viridis. As to the kind of experiment: Test Example 7: herbicidal effect test by soil application in upland field (low dose). As to conditions: 7.5 g per 10 ares, sprayed one day after sowing, upland soil, 14 days after application, read-out: weed inhibition rate.
Experiment [4] concerns Amaranthus viridis. As to the kind of experiment: Test Example 8: herbicidal effect test by stem and leaf treatment in upland field (low dose). As to conditions: 7.5 g per 10 ares, sprayed seven days after sowing, upland soil, 14 days after application, read-out: weed inhibition rate. The method in brief:
(§1)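 Duplicate alluvial-loam pots (36 cm^2), seeded in the top 1 cm and grown seven days, were sprayed with diluted emulsifiable concentrate at 7.5 g a.i. per 10 ares (100 L per 10 ares). Percent inhibition was assessed at 14 days post-treatment.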

Experiment [5] concerns Chenopodium album. Described as above. The settings on record: 7.5 g per 10 ares, sprayed seven days after sowing, upland soil, 14 days after application, read-out: weed inhibition rate. The method in brief: as §1
Experiment [6] has as its system Amaranthus viridis. As to the kind of experiment: Test Example 4: herbicidal effect test by stem and leaf treatment in upland field. As to conditions: 120 g per 10 ares, sprayed seven days after sowing, upland soil, 14 days after application, read-out: weed inhibition rate. The method in brief:
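Read-out: weed inhibition rate (%), calculated 14 days post-application, each concentration group in duplicate. Treatment was a spray of diluted emulsifiable concentrate (100 liters per 10 ares; 120 g a.i. per 10 ares) onto pots sown 7 days earlier in alluvial loam.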

Experiment [7] deals with Chenopodium album. Described as above. As to conditions: 120 g per 10 ares, sprayed seven days after sowing, upland soil, 14 days after application, read-out: weed inhibition rate.
Experiment [8] has as its system Lindernia pyxidaria. Briefly: Test Example 1: herbicidal effect test by soil application in paddy rice. As to conditions: 336 h, 120 g active ingredient per 10 ares, applied immediately after sowing, flooded pots, 14 days after application, read-out: weed inhibition rate. In a few lines:
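Inhibition rate (%) read 14 days after treatment, duplicate pots. Water-diluted emulsifiable concentrate was applied by dropper at 120 g active ingredient/10 ares right after sowing. Seeds (30 per species, 0–1 cm deep) went into puddled paddy soil kept flooded at about 3 cm in a greenhouse.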

Experiment [9] relates to Echinochloa crus-galli var. formosensis at the three-leaf stage. Briefly: Comparative Example: herbicidal effect test by application during growth period of paddy rice (three-leaf stage, Table 7). As to conditions: 504 h, active ingredient 7.5 g per 10 ares, emulsifiable concentrate applied by dropper to flooded pots, 21 days after chemical application, triplicate, read-out: Weed inhibition rate (%). The protocol: As an example, the herbicidal effect on Echinochloa crus-galli var. formosensis at the three-leaf stage was confirmed by the following method, and the results are specifically shown in Table 7 as a comparative example.
Wagner pots with an area of […] were filled with paddy soil, followed by addition of water and incorporation of chemical fertilizer (N:P:K = 16:16:16), after which puddling was performed. After that, 30 seeds of Echinochloa crus-galli var. formosensis were sown at a depth of 0 cm to 1 cm. Immediately after sowing, the pots were flooded and a water depth of approximately 3 cm was maintained. Subsequent management was conducted in a glass greenhouse. When Echinochloa crus-galli var. formosensis reached the three-leaf stage, an emulsifiable concentrate prepared according to Formulation Example 5 using the compound shown below was diluted with water, and a specified amount of the diluted solution was applied by dropper. The amount of the active ingredient to be applied was equivalent to 7.5 g per 10 ares. The test was conducted in triplicate for each chemical concentration group, and the weed inhibition rate (%) was determined 21 days after chemical application using the following formula (Math. 1).

Turning to `CC(C)[C@]12C[C@@H](OCc3ccccc3F)[C@](C)(CC1OCC1CC1)O2` (mixture of isomers) [1-921, (1S,2R,4R,SR)-5-(cyclopropylmethoxy)-2-[(2-fluorophenyl)methoxy]-1-methyl-4-isopropyl-7-oxabicyclo[2.2.1]heptane], the inhibition at 75 g/ha in experiment [1], in experiment [3], in [4] and in experiment [5] was ≥ 80% each time. Moreover, the inhibition at 1200 g/ha in experiment [2], in experiment [6] and in experiment [7] was ≥ 80% in each case. Further, the pest or weed control at 1200 g/ha in experiment [8] was ≥ 80%.
For `CC(C)[C@]12C=C[C@](C)(O1)C(OCc1ccccc1F)C2` (mixture of isomers) [3-5, (1R,4S,SR)-5-[(2-fluorophenyl)methoxy]-4-methyl-1-isopropyl-7-oxabicyclo[2.2.1]hept-2-ene], the inhibition at 1200 g/ha in [2], in [6] and in [7] was ≥ 80% throughout. The inhibition at 75 g/ha in experiment [5] was ≥ 80%; in [9], 82%. In addition, the pest or weed control at 1200 g/ha in experiment [8] was ≥ 80%.
Regarding `Cc1ccccc1CO[C@@H]1C[C@]2(C(C)C)O[C@@]1(C)C[C@@H]2F` [1-2, (1R,2S,4S,5R)-2-fluoro-1-isopropyl-4-methyl-5-((2-methylbenzyl)oxy)-7-oxabicyclo[2.2.1]heptane], the inhibition at 1200 g/ha in [2], in experiment [6] and in experiment [7] was ≥ 80% each time. Moreover, the inhibition at 75 g/ha in [4] was ≥ 80%; in [5], ≥ 80%; in [9], 94%.
With `CC(C)[C@]12C[C@@H](OCc3ccccc3F)[C@](C)(CC1C)O2` (stereo partly drawn) [1-92, (1S,2R,4R)-2-((2-fluorobenzyl)oxy)-4-isopropyl-1,5-dimethyl-7-oxabicyclo[2.2.1]heptane], the inhibition at 75 g/ha in experiment [5] was ≥ 80%; in experiment [9] it was 100%. Moreover, the inhibition at 1200 g/ha in experiment [6] and in experiment [7] was ≥ 80% throughout.
In the case of `CC(C)[C@]12C[C@@H](OCc3ccccc3F)[C@](C)(C[C@@H]1OCc1ccccc1F)O2` [1-603, (1S,2R,4R,5S)-2,5-bis[(2-fluorophenyl)methoxy]-1-methyl-4-isopropyl-7-oxabicyclo[2.2.1]heptane], in [1], the inhibition at 75 g/ha was ≥ 80%. Also, in [7], the inhibition at 1200 g/ha was ≥ 80%. Further, in experiment [8], the pest or weed control at 1200 g/ha was ≥ 80%.
As for `C=CCO[C@@H]1C[C@]2(C)O[C@@]1(C(C)C)C[C@H]2OCc1ccccc1F` [1-930, (1S,2R,4R,5R)-2-[(2-fluorophenyl)methoxy]-1-methyl-4-isopropyl-5-prop-2-enoxy-7-oxabicyclo[2.2.1]heptane], the inhibition at 75 g/ha in [1], in [3], in [4] and in experiment [5] was ≥ 80% throughout. For the same compound, the inhibition at 1200 g/ha in [2], in [6] and in experiment [7] was ≥ 80% throughout. The pest or weed control at 1200 g/ha in [8] was ≥ 80%.
Regarding `C#CCO[C@@H]1C[C@]2(C)O[C@@]1(C(C)C)C[C@H]2OCc1ccccc1F` [1-931, (1S,2R,4R,5R)-2-[(2-fluorophenyl)methoxy]-1-methyl-4-isopropyl-5-prop-2-ynoxy-7-oxabicyclo[2.2.1]heptane], the inhibition at 75 g/ha in experiment [1], in [3] and in [4] was ≥ 80% throughout. The inhibition at 1200 g/ha in experiment [2], in experiment [6] and in experiment [7] was ≥ 80% throughout. In [8], the pest or weed control at 1200 g/ha is ≥ 80%.
`CC(C)[C@]12C[C@@H](OCc3c(F)cccc3F)[C@](C)(CC1=O)O2` [2-20, (1R,4S,5R)-5-((2,6-difluorobenzyl)oxy)-1-isopropyl-4-methyl-7-oxabicyclo[2.2.1]heptan-2-one]: the inhibition at 75 g/ha in experiment [1] is ≥ 80%. Also, the inhibition at 1200 g/ha in [2] and in experiment [6] was ≥ 80% in each case.
Consider `C=C1C[C@]2(C)O[C@@]1(C(C)C)C[C@H]2OCc1ccccc1C` [2-72, (1R,4S,5R)-1-isopropyl-4-methyl-5-((2-methylbenzyl)oxy)-2-methylene-7-oxabicyclo[2.2.1]heptane], for which the inhibition at 1200 g/ha in experiment [2] and in experiment [7] was ≥ 80% each time. In addition, the inhibition at 75 g/ha in experiment [3] and in experiment [5] was ≥ 80% in each case. Besides, in experiment [8], the pest or weed control at 1200 g/ha was ≥ 80%.
Take `C=C1C[C@]2(C)O[C@@]1(C(C)C)C[C@H]2OCc1ccccc1F` [2-88, (1R,4S,5R)-5-((2-fluorobenzyl)oxy)-1-isopropyl-4-methyl-2-methylene-7-oxabicyclo[2.2.1]heptane]: the inhibition at 1200 g/ha in [2] and in experiment [7] was ≥ 80% in each case. The inhibition at 75 g/ha in experiment [3] was ≥ 80%; in experiment [5], ≥ 80%; in experiment [9] it was 80%. In addition, the pest or weed control at 1200 g/ha in experiment [8] is ≥ 80%.

For orientation: inhibition means the share of the control response that was lost under treatment.
